Here are results for one molecule from US20230024652A1, “PHARMACEUTICAL COMPOSITION COMPRISING SMALL OCTOPUS-DERIVED PEPTIDE FOR TREATMENT OF INFLAMMATORY DISEASE” (NATIONAL MARINE BIODIVERSITY INSTITUTE OF KOREA, priority 2020, published 2023).

In the data set the test system is RAW 264.7 macrophages. Description: MTT cell viability / cytotoxicity and cyto-protection. It is filed as cell-based. As to conditions: 62.5 to 500 μg/mL. Here is the method: As macrophages, RAW 264.7 cells (American Type Culture Collection; ATCCUSA) were cultured in DMEM (Gibco/BRL, Canada) supplemented with 10% heat inactivated FBS and 1% antibiotics in 37° C. at 100% humidity under 5% CO2. […] After 24 hours, culture medium containing 3-(4,5-dimethylthiazol-2-yl)-2,5-diphenyltetrazolium bromide (MTT) (0.1 mg/mL) was added to each well. After 1 hour, culture medium was removed, and formazan crystals were dissolved in dimethyl sulfoxide (DMSO) and measured at 550 nm using a microplate reader. The concentration of NO in the culture medium was determined by Griess reagent (Abekura et al. Int Immunopharmacol 68:156, 2019). The cell viability of the control group untreated with Octominin was designated as 100%, which indicates no cytotoxicity

SMILES strings stand for the structures. Where a SMILES comes first, the peptide text is derived from it.

As for `CC[C@H](C)[C@H](NC(=O)[C@H](C)NC(=O)[C@H](CCCCN)NC(=O)CNC(=O)[C@H](C)NC(=O)[C@H](Cc1c[nH]cn1)NC(=O)[C@@H](NC(=O)[C@H](C)NC(=O)CNC(=O)[C@H](CCCNC(=N)N)NC(=O)[C@@H](NC(=O)[C@H](CC(C)C)NC(=O)[C@H](Cc1c[nH]c2ccccc12)NC(=O)CN)[C@@H](C)CC)[C@@H](C)CC)C(=O)N[C@@H](Cc1c[nH]cn1)C(=O)NCC(=O)N[C@@H](CC(C)C)C(=O)N[C@H](C(=O)N[C@@H](Cc1c[nH]cn1)C(=O)N[C@@H](CCCNC(=N)N)C(=O)N[C@@H](CCCNC(=N)N)C(=O)N[C@@H](CCCNC(=N)N)C(=O)N[C@@H](Cc1c[nH]cn1)C(=O)O)[C@@H](C)CC` [Octominin] (H-GWLIRGAIHAGKAIHGLIHRRRH-OH), the toxicity to macrophages result is “non-toxic”. For the same molecule, for the setting “RAW 264.7 macrophages without LPS, compared with control group”, the “cell viability reduction (cytotoxicity, MTT)” value was “did not show any significant cell viability reduction”.
